Data from PubChem BioAssay AID1963830 (Molecular Pharmacology Branch, DTP, NCI, 2024).

Test system: 922993-354-T-J3-PDC complex spheroid viability
Assay: Anticancer human tumor 922993-354-T-J3-PDC patient-derived endometrial carcinoma cell line growth inhibition [POLQ]
Settings: for IC50: curve of first compound; for viability, T/C: stronger effect = lower value
Method in brief: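 Three-cell-type spheroids modelling solid tumor plus stroma served as the readout system; POL inhibitors were tested individually and in combination, concentration ranges set by clinical Cmax where known.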

[1] = second compound 0.0316 µM, first compound 0.0316 µM
[2] = second compound 0.0316 µM, first compound 0.1 µM
[3] = second compound 0.0316 µM, first compound 0.316 µM
[4] = second compound 0.0316 µM, first compound 1 µM
[5] = second compound 0.0316 µM, first compound 3.16 µM
[6] = second compound 0.0316 µM, first compound 10 µM
[7] = second compound 0.1 µM, first compound 0.0316 µM
[8] = second compound 0.1 µM, first compound 0.1 µM
[9] = second compound 0.1 µM, first compound 0.316 µM
[10] = second compound 0.1 µM, first compound 1 µM
[11] = second compound 0.1 µM, first compound 3.16 µM
[12] = second compound 0.1 µM, first compound 10 µM
[13] = second compound 0.316 µM, first compound 0.0316 µM
[14] = second compound 0.316 µM, first compound 0.1 µM
[15] = second compound 0.316 µM, first compound 0.316 µM
[16] = second compound 0.316 µM, first compound 1 µM
[17] = second compound 0.316 µM, first compound 3.16 µM
[18] = second compound 0.316 µM, first compound 10 µM
[19] = second compound 1 µM, first compound 0.0316 µM
[20] = second compound 1 µM, first compound 0.1 µM
[21] = second compound 1 µM, first compound 0.316 µM
[22] = second compound 1 µM, first compound 1 µM
[23] = second compound 1 µM, first compound 3.16 µM
[24] = second compound 1 µM, first compound 10 µM
[25] = second compound 3.16 µM, first compound 0.0316 µM
[26] = second compound 3.16 µM, first compound 0.1 µM
[27] = second compound 3.16 µM, first compound 0.316 µM
[28] = second compound 3.16 µM, first compound 1 µM
[29] = second compound 3.16 µM, first compound 3.16 µM
[30] = second compound 3.16 µM, first compound 10 µM
[31] = second compound 10 µM, first compound 0.0316 µM
[32] = second compound 10 µM, first compound 0.1 µM
[33] = second compound 10 µM, first compound 0.316 µM
[34] = second compound 10 µM, first compound 1 µM
[35] = second compound 10 µM, first compound 3.16 µM
[36] = second compound 10 µM, first compound 10 µM
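Also: spheroids exposed to the agents for one week.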
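For viability, T/C in this document: 100% = DMSO vehicle control wells.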

SMILES: CC1COCCN1c1cc(C2(O)CC3CCC(C2)O3)c2cnn(-c3ccn[nH]3)c2n1 (stereo not drawn) + Cc1cccc(N(C)C(=O)C2C(O)CCN2c2nc(C)cc(C(F)(F)F)c2C#N)c1
- IC50 (second compound 0.0316 µM): 0.439 µM
- IC50 (second compound 0.1 µM): 0.457 µM
- IC50 (second compound 0.316 µM): 0.58 µM
- IC50 (second compound 1 µM): 0.51 µM
- IC50 (second compound 3.16 µM): 0.39 µM
- IC50 (second compound 10 µM): 0.166 µM
- viability, T/C [1]: 104%
- viability, T/C [2]: 77%
- viability, T/C [3]: 61.6%
- viability, T/C [4]: 33.6%
- viability, T/C [5]: 10.6%
- viability, T/C [6]: 8.67%
- viability, T/C [7]: 109%
- viability, T/C [8]: 93.7%
- viability, T/C [9]: 63.9%
- viability, T/C [10]: 23.2%
- viability, T/C [11]: 10.3%
- viability, T/C [12]: 10.8%
- viability, T/C [13]: 110%
- viability, T/C [14]: 101%
- viability, T/C [15]: 75.5%
- viability, T/C [16]: 27.5%
- viability, T/C [17]: 11.6%
- viability, T/C [18]: 10.9%
- viability, T/C [19]: 97.3%
- viability, T/C [20]: 89.5%
- viability, T/C [21]: 67.9%
- viability, T/C [22]: 25.8%
- viability, T/C [23]: 9.46%
- viability, T/C [24]: 10.4%
- viability, T/C [25]: 101%
- viability, T/C [26]: 89.2%
- viability, T/C [27]: 57.1%
- viability, T/C [28]: 20.7%
- viability, T/C [29]: 8.74%
- viability, T/C [30]: 9.75%
- viability, T/C [31]: 101%
- viability, T/C [32]: 64.6%
- viability, T/C [33]: 32.5%
- viability, T/C [34]: 10.3%
- viability, T/C [35]: 8.71%
- viability, T/C [36]: 9.69%

SMILES: CC(=O)O[C@H]1C(=O)[C@@]2(C)[C@H]([C@H](OC(=O)c3ccccc3)[C@]3(O)C[C@H](OC(=O)[C@H](O)[C@@H](NC(=O)c4ccccc4)c4ccccc4)C(C)=C1C3(C)C)[C@]1(OC(C)=O)CO[C@@H]1C[C@@H]2O + Nc1ccc(C#CCN(C(=O)Cc2ncc(C(F)(F)F)cc2C(F)(F)F)c2ccc(F)cc2)nn1
- IC50 (second compound 0.0316 µM): > 3 µM
- IC50 (second compound 0.1 µM): > 3 µM
- IC50 (second compound 0.316 µM): > 3 µM
- IC50 (second compound 1 µM): > 3 µM
- IC50 (second compound 3.16 µM): > 3 µM
- IC50 (second compound 10 µM): > 3 µM
- viability, T/C (second compound 0.0316 µM, first compound 0.00949 µM): 105%
- viability, T/C (second compound 0.0316 µM, first compound 0.03 µM): 107%
- viability, T/C (second compound 0.0316 µM, first compound 0.0949 µM): 102%
- viability, T/C (second compound 0.0316 µM, first compound 0.3 µM): 105%
- viability, T/C (second compound 0.0316 µM, first compound 0.949 µM): 99%
- viability, T/C (second compound 0.0316 µM, first compound 3 µM): 73.4%
- viability, T/C (second compound 0.1 µM, first compound 0.00949 µM): 105%
- viability, T/C (second compound 0.1 µM, first compound 0.03 µM): 106%
- viability, T/C (second compound 0.1 µM, first compound 0.0949 µM): 106%
- viability, T/C (second compound 0.1 µM, first compound 0.3 µM): 106%
- viability, T/C (second compound 0.1 µM, first compound 0.949 µM): 99.9%
- viability, T/C (second compound 0.1 µM, first compound 3 µM): 72.4%
- viability, T/C (second compound 0.316 µM, first compound 0.00949 µM): 107%
- viability, T/C (second compound 0.316 µM, first compound 0.03 µM): 107%
- viability, T/C (second compound 0.316 µM, first compound 0.0949 µM): 104%
- viability, T/C (second compound 0.316 µM, first compound 0.3 µM): 103%
- viability, T/C (second compound 0.316 µM, first compound 0.949 µM): 96.6%
- viability, T/C (second compound 0.316 µM, first compound 3 µM): 78.1%
- viability, T/C (second compound 1 µM, first compound 0.00949 µM): 107%
- viability, T/C (second compound 1 µM, first compound 0.03 µM): 100%
- viability, T/C (second compound 1 µM, first compound 0.0949 µM): 104%
- viability, T/C (second compound 1 µM, first compound 0.3 µM): 107%
- viability, T/C (second compound 1 µM, first compound 0.949 µM): 91.7%
- viability, T/C (second compound 1 µM, first compound 3 µM): 71.4%
- viability, T/C (second compound 3.16 µM, first compound 0.00949 µM): 101%
- viability, T/C (second compound 3.16 µM, first compound 0.03 µM): 105%
- viability, T/C (second compound 3.16 µM, first compound 0.0949 µM): 98.3%
- viability, T/C (second compound 3.16 µM, first compound 0.3 µM): 101%
- viability, T/C (second compound 3.16 µM, first compound 0.949 µM): 83.7%
- viability, T/C (second compound 3.16 µM, first compound 3 µM): 69.8%
- viability, T/C (second compound 10 µM, first compound 0.00949 µM): 90.6%
- viability, T/C (second compound 10 µM, first compound 0.03 µM): 84.3%
- viability, T/C (second compound 10 µM, first compound 0.0949 µM): 69.5%
- viability, T/C (second compound 10 µM, first compound 0.3 µM): 69.8%
- viability, T/C (second compound 10 µM, first compound 0.949 µM): 60.8%
- viability, T/C (second compound 10 µM, first compound 3 µM): 54.8%

SMILES: COc1cc(C2c3cc4c(cc3C(OC3OC5COC(C)OC5C(O)C3O)C3COC(=O)C23)OCO4)cc(OC)c1O (stereo not drawn) + Nc1ccc(C#CCN(C(=O)Cc2ncc(C(F)(F)F)cc2C(F)(F)F)c2ccc(F)cc2)nn1
- IC50 (second compound 0.0316 µM): > 10 µM
- IC50 (second compound 0.1 µM): > 10 µM
- IC50 (second compound 0.316 µM): > 10 µM
- IC50 (second compound 1 µM): > 10 µM
- IC50 (second compound 3.16 µM): > 10 µM
- IC50 (second compound 10 µM): 4.39 µM
- viability, T/C [1]: 108%
- viability, T/C [2]: 106%
- viability, T/C [3]: 101%
- viability, T/C [4]: 105%
- viability, T/C [5]: 90.9%
- viability, T/C [6]: 81%
- viability, T/C [7]: 103%
- viability, T/C [8]: 102%
- viability, T/C [9]: 104%
- viability, T/C [10]: 98.2%
- viability, T/C [11]: 97.4%
- viability, T/C [12]: 71.4%
- viability, T/C [13]: 101%
- viability, T/C [14]: 105%
- viability, T/C [15]: 100%
- viability, T/C [16]: 104%
- viability, T/C [17]: 94.2%
- viability, T/C [18]: 76%
- viability, T/C [19]: 105%
- viability, T/C [20]: 103%
- viability, T/C [21]: 103%
- viability, T/C [22]: 100%
- viability, T/C [23]: 96.1%
- viability, T/C [24]: 77%
- viability, T/C [25]: 103%
- viability, T/C [26]: 97.2%
- viability, T/C [27]: 98%
- viability, T/C [28]: 95.6%
- viability, T/C [29]: 88%
- viability, T/C [30]: 67.6%
- viability, T/C [31]: 100%
- viability, T/C [32]: 90.5%
- viability, T/C [33]: 91.2%
- viability, T/C [34]: 75.1%
- viability, T/C [35]: 62.2%
- viability, T/C [36]: 25.3%

SMILES: COc1cccc2c1C(=O)c1c(O)c3c(c(O)c1C2=O)CC(O)(C(=O)CO)CC3OC1CC(N)C(O)C(C)O1 (stereo not drawn) + Nc1ccc(C#CCN(C(=O)Cc2ncc(C(F)(F)F)cc2C(F)(F)F)c2ccc(F)cc2)nn1
- IC50 (second compound 0.0316 µM): 5.58 µM
- IC50 (second compound 0.1 µM): 5.44 µM
- IC50 (second compound 0.316 µM): 5.79 µM
- IC50 (second compound 1 µM): 5.39 µM
- IC50 (second compound 3.16 µM): 2.31 µM
- IC50 (second compound 10 µM): 0.24 µM
- viability, T/C [1]: 103%
- viability, T/C [2]: 105%
- viability, T/C [3]: 91.3%
- viability, T/C [4]: 84.9%
- viability, T/C [5]: 74.7%
- viability, T/C [6]: 28.3%
- viability, T/C [7]: 102%
- viability, T/C [8]: 103%
- viability, T/C [9]: 92.3%
- viability, T/C [10]: 87.9%
- viability, T/C [11]: 74.3%
- viability, T/C [12]: 24.9%
- viability, T/C [13]: 105%
- viability, T/C [14]: 101%
- viability, T/C [15]: 99.6%
- viability, T/C [16]: 85.4%
- viability, T/C [17]: 71%
- viability, T/C [18]: 32.1%
- viability, T/C [19]: 98.9%
- viability, T/C [20]: 105%
- viability, T/C [21]: 96.2%
- viability, T/C [22]: 80.7%
- viability, T/C [23]: 72.1%
- viability, T/C [24]: 28.2%
- viability, T/C [25]: 95.2%
- viability, T/C [26]: 93.4%
- viability, T/C [27]: 79.7%
- viability, T/C [28]: 75.4%
- viability, T/C [29]: 39.9%
- viability, T/C [30]: 17.5%
- viability, T/C [31]: 78.7%
- viability, T/C [32]: 75.2%
- viability, T/C [33]: 41.5%
- viability, T/C [34]: 14.5%
- viability, T/C [35]: 38.1%
- viability, T/C [36]: 14.8%
